Results: publication PMC3587609, “A Novel Cell-Penetrating Peptide Derived from Human Eosinophil Cationic Protein” (PLoS ONE, 2013)
Where two headings read alike, the source gives them in different places.

Tests used:
Beas-2B cells [1] = experiment: Cell viability assay (MTT)
Experimental: Beas-2B cells were grown in serum-free medium in the presence of ECP^32–41 at indicated concentrations for 24 h. (A) The cytotoxic effect of ECP^32–41 was measured by MTT assay. The cell viability of untreated cells was set to 100%. Cells treated with 0.1% Triton X-100 was used as a positive control. (B) The membrane disruption by ECP^32–41 was measured by LDH assay. LDH released from cells lysed with 0.1% Triton X-100 in medium was defined as 100% leakage and LDH released from untreated cells was set as 0% leakage.
Beas-2B cells were incubated with 10 µM eGFP or eGFP-ECP^32–41 at 37°C for 1 h. The cells were then washed with 500 µl PBS, trypsinized at 37°C for 15 min, suspended in 500 µl PBS, and subjected to flow cytometry. (B) Beas-2B cells were treated with the indicated concentrations of TAT^47–57, ECP^32–41, KLA, KLA-TAT^47–57 or KLA-ECP^32–41 at 37°C for 24 h, and their cytotoxic effects were determined by the MTT assay. Cytotoxic effects of (C) KLA-TAT^47–57 and (D) KLA-ECP^32–41, at the indicated concentrations, on Beas-2B, A549, Caco-2, and AGS cells were assessed by the MTT assay after incubation at 37°C for 24 h. The cell viability untreated cells was set to 100%. The result is expressed as the mean ± S.D., n = 3.
The effects of the peptides on cell viability were determined colourimetrically using 3-(4,5-dimethylthiazol-2-yl)-2,5-diphenyltetrazolium bromide (MTT) (US Biological). Cells (1.0×10^4/well) were seeded into the wells of 96-well plates and incubated overnight. Cell samples were then exposed to different concentrations of TAT^47–57, ECP^32–41, KLA, KLA-TAT^47–57 or KLA-ECP^32–41. After 24 h, 100 µl of 0.5 mg/ml MTT in medium was added into each well, and the cells were incubated at 37°C for 3 h. The incubation medium was removed, and the remaining purple crystal formazan was dissolved in dimethylsulphoxide. Cells treated with 0.1% Triton X-100 was used as a positive control for cell viability. A540 values were measured using a multiwall plate reader (Molecular Devices).

Beas-2B cells [2] = experiment: Cell-based ELISA: binding of FITC-peptides to Beas-2B cells; conditions: 5 µM FITC-peptides, 4°C, 1 h, washed twice with PBS, cell-based ELISA (FITC fluorescence), FITC-ECP32–41 bound normalized to 100%, mean ± S.D., n = 4
Experimental: Cells (2×10^4/well) were seeded into 96-well black plate and incubated under a 5% CO2 atmosphere at 37°C for 24 h. Each well was then washed with 150 µl ice-cold PBS. To prevent non-specific antibody binding, BSA was used as a blocking agent, and PBS containing 2% (w/v) BSA was added to each well at 4°C and incubated for 1 h. The wells were then washed with 100 µl ice-cold PBS. FITC-conjugated peptides were diluted to 10, 20, or 100 µM in PBS and then, medium (95 µl) and a peptide/PBS solution (5 µl) were gently mixed, added into a well, and the plate was placed on ice for 1 h. Each well was then washed with 100 µl PBS and the FITC fluorescent intensity for each sample was measured using a fluorescence spectrophotometer (Wallac Victor II, Perkin Elmer, USA) and excitation and emission wavelengths of 485 nm and 521 nm respectively.

Beas-2B cells [3] = experiment: Flow cytometry: internalization of FITC-peptides into Beas-2B cells; type: cell-based; conditions: 5 µM FITC-peptides, 37°C, 1 h, washed, trypsinized 37°C 15 min, cells treated with ECP32–41 set as 100%, mean ± S.D., n = 4
Experimental: Internalization of FITC-ECP^32–41 and FITC-EDN^32–41 was measured as the median ﬂuorescence intensity (MFI) of 6.0×10^5 Beas-2B cells that had been treated with one of the FITC-labelled peptides (1 to 20 µM) at 37°C for 1 h, and then treated with trypsin to remove surface-bound peptides. […] When Beas-2B cells were treated with 5 µM of a FITC-peptide at 37°C, the fluorescent signal for FITC-ECP^32–41 increased within 5 min, and reached plateau at 30 min (Figure 1B).
(§1) Figure 1 Internalization of ECP^32–41 and EDN^32–41. (A) Beas-2B cells were incubated with 1, 5, 10, or 20 µM FITC-ECP^32–41, FITC-EDN^32–41, or FITC at 37°C for 1 h. […] (B) Beas-2B cells were incubated with 5 µM FITC-ECP^32–41, FITC-EDN^32–41, or FITC at 37°C for 5, 10, 30, or 60 min. The cells were then treated as described in (A) and subjected to flow cytometry. The results in (A) and (B) are expressed as the mean ± standard deviation (S.D.), n = 3. (C) Beas-2B cells were incubated with 5 µM FITC-ECP^32–41, FITC-EDN^32–41, or FITC at 37°C for 5 or 60 min before CLSM. Nuclei were stained with Hoechst 34850. Scale bar: 20 µm.
Cells (3.0×10^5/well) were added into six-well plates and cultured in the indicated medium. […] The fluorescent intensities of the cell samples were measured using a FACSCalibur flow cytometer (BD Biosciences, Franklin Lakes, NJ) and excitation and emission wavelengths of 488 nm and 515–545 nm respectively. […]

Beas-2B cells [4] = experiment: Confocal laser-scanning microscopy (CLSM) of FITC-peptide internalization; type: cell-based; conditions: 5 µM peptide, 37°C, 5 and 60 min
Experimental: as §1
Cells were cultured on coverslips (1.0×10^4/coverslip) in indicated medium. After 24 h, cell samples were each incubated at 37°C for 1 h with an FITC-peptide. The cells were then washed twice with PBS, fixed with 2% (w/v) paraformaldehyde and incubated, first in PBS for 15 min, then with 50 mM NH4Cl in PBS for 10 min, and finally permeabilised with 0.5% (v/v) Triton-X-100 at 25°C for 5 min. Nuclei were stained with Hoechst 33342 Fluorescent Stain, (Sigma-Aldrich) during the final 5 min of incubation. Cells were then washed twice with 0.05% Triton-X-100, once with PBS, and the coverslips were mounted in a Vectashield anti-fade mounting medium (Vector Labs). […]

CHO-pgsA745 cells = experiment: Cell-based ELISA: binding to GAG-deficient CHO cells; parameters: species or system Chinese hamster; conditions: CHO-pgsA745 cells (no GAG), 5 µM FITC-ECP32–41, 4°C, 1 h, CHO-K1 normalized to 100%, n = 3
Experimental: (§2) Cell-membrane GAGs including HS, CS/DS, and HA are necessary for CPP internalization, [6]. To assess the effect of GAGs on ECP^32–41 cellular binding ability, soluble GAGs including LMWH, CSC, and HA were used as competitors to inhibit the attachment of ECP^32–41 to Beas-2B cells. […] To clarify the roles of cell-surface HS and CS, the binding of ECP^32–41 to wild-type and two mutant strains of Chinese hamster ovary (CHO) cells was assessed by ELISA. […] CHO-pgsA745 cells are deficient in xylosyltransferase so that no GAG was present on the surface. […] GAGs, and especially HSPGs, are therefore crucial for the initial interaction of ECP^32–41 with cell surfaces.
(§3) Figure 2 Cell-surface GAG-dependent binding of ECP^32–41. […] After washed twice with PBS, cells were subjected to ELISA. […] (B) CHO cells were incubated with 5 µM FITC-ECP^32–41 at 4°C for 1 h, washed twice with PBS, and subjected to ELISA. The amount of FITC-ECP^32–41 bound to CHO-K1 cells was normalized to 100%.
(§4) Cells (2×10^4/well) were seeded into 96-well black plate and incubated under a 5% CO2 atmosphere at 37°C for 24 h. Each well was then washed with 150 µl ice-cold PBS. […] Each well was then washed with 100 µl PBS and the FITC fluorescent intensity for each sample was measured using a fluorescence spectrophotometer (Wallac Victor II, Perkin Elmer, USA) and excitation and emission wavelengths of 485 nm and 521 nm respectively.

CHO-pgsD677 cells = experiment: Cell-based ELISA: binding to HS-deficient CHO cells; parameters: species or system Chinese hamster; conditions: CHO-pgsD677 cells (lack HS), 5 µM FITC-ECP32–41, 4°C, 1 h, CHO-K1 normalized to 100%, n = 3
Experimental: as §2, §3, §4

CHO-K1 cells = experiment: Internalization into wild-type CHO cells (flow cytometry and CLSM); type: cell-based, Chinese hamster; conditions: 5 µM FITC-ECP32–41, 37°C, 1 h
Experimental: (§5) Figure 3 HS-dependent ECP^32–-41 internalization. […] (B) Samples of wild-type and mutant CHO cells were each incubated with 5 µM FITC-ECP^32–41 at 37°C for 1 h and then subjected to flow cytometry. (C) Samples of wild-type and mutant CHO cells were incubated with 5 µM FITC-ECP^32–41 at 37°C for 1 h., then washed twice with 1 ml PBS, and fixed for CLSM. Nuclei were stained with Hoechst 34850. Scale bar: 20 µm. (D) Beas-2B cells were treated with heparinase I, heparinase III, or chondroitinase ABC for 2 h prior to incubation with 5 µM FITC-ECP^32–41 at 37°C for 1 h. […] Untreated cells served as the controls. The fluorescence of cells treated with FITC-ECP^32–41 was set to 100%. […] (E) Beas-2B cells were treated with heparinase I, heparinase III, or chondroitinase ABC for 2 h. […] Untreated cells served as the control. The fluorescence of the untreated cells was set to 100%.
(§6) Cells (3.0×10^5/well) were added into six-well plates and cultured in the indicated medium. After 24 h, each FITC-peptide, dissolved in medium, was added into a well and the samples incubated for 1 h. Cells were then harvested, washed, and suspended in PBS. The fluorescent intensities of the cell samples were measured using a FACSCalibur flow cytometer (BD Biosciences, Franklin Lakes, NJ) and excitation and emission wavelengths of 488 nm and 515–545 nm respectively. […]

CHO pgsD-677 cells = experiment: Internalization into HS-deficient CHO cells (flow cytometry and CLSM); type: cell-based, Chinese hamster; conditions: CHO pgsD677 cells, 5 µM FITC-ECP32–41, 37°C, 1 h
Experimental: as §5, §6

CHO pgsA-745 cells = experiment: Internalization into GAG-deficient CHO cells (flow cytometry and CLSM); type: cell-based, Chinese hamster; conditions: CHO pgsA745 cells, 5 µM FITC-ECP32–41, 37°C, 1 h
Experimental: as §5, §6

Beas-2B cells [5] = experiment: Internalization after heparinase / chondroitinase ABC depletion of GAGs; type: cell-based; conditions: 10 U/ml chondroitinase ABC, 37°C, 2 h, then 5 µM FITC-ECP32–41, 37°C, 1 h; flow cytometry; n = 3
Experimental: as §5, §6

Beas-2B cells [6] = experiment: Membrane disruption assay (LDH leakage); type: cell-based; conditions: up to 100 µM, 37°C, 24 h, 0.1% Triton X-100 = 100% leakage, P>0.05, n = 3
Experimental: Lactate dehydrogenase (LDH) was used to quantify membrane disruption. The release of LDH from cells was measured by Promega CytoTox-ONE assay (Promega, USA). […] Cell samples were then exposed to different concentrations of ECP^32–41. After 24 h, 100 µl of extracellular medium was transferred to a black 96-well plate containing 100 µl of CytoTox-ONE reagent, incubated at RT for 10 min. Fluorescent intensity for each sample was measured using a fluorescence spectrophotometer (Wallac Victor II, Perkin Elmer, USA) and excitation and emission wavelengths of 540 nm and 590 nm respectively.

[7] = Circular dichroism spectroscopy; type: physicochemical; conditions: data not shown

KLAKLAKKLAKLAK
cytotoxicity (MTT) (Beas-2B cells [1]): not cytotoxic

NYRWRCKNQN [ECP^32–41]
Binding (%) (Beas-2B cells [2]): 100% | Penetrating (%) (Beas-2B cells [3]): 100% | intracellular fluorescence by CLSM (Beas-2B cells [4]): clearly detected | reduction of binding versus CHO-K1 cells (CHO-pgsA745 cells): 52% | reduction of binding versus CHO-K1 cells (CHO-pgsD677 cells): 31% | internalization monitored by CLSM (CHO-K1 cells): clearly observed for CHO-K1 cells | internalization monitored by CLSM (CHO pgsD-677 cells): but not for CHO pgsD677 or pgsA745 cells | internalization monitored by CLSM (CHO pgsA-745 cells): but not for CHO pgsD677 or pgsA745 cells | effect of CS depletion (chondroitinase ABC) on internalization (Beas-2B cells [5]): little effect | cell viability (MTT) at 100 µM (Beas-2B cells [1]): neither peptide affected cell viability | LDH levels (membrane disruption), treated versus untreated cells (Beas-2B cells [6]): no significant changes | secondary structure by circular dichroism spectroscopy [7]: random coil

N=C(N)NCCC[C@H](NC(=O)CN)C(=O)N[C@@H](CCCCN)C(=O)N[C@@H](CCCCN)C(=O)N[C@@H](CCCNC(=N)N)C(=O)N[C@@H](CCCNC(=N)N)C(=O)N[C@@H](CCC(N)=O)C(=O)N[C@@H](CCCNC(=N)N)C(=O)N[C@@H](CCCNC(=N)N)C(=O)N[C@@H](CCCNC(=N)N)C(=O)N1CCC[C@H]1C(=O)O [TAT^47–57]
cell viability (MTT) at 100 µM (Beas-2B cells [1]; Beas-2B, 100 µM peptide, 37°C, 24 h, n = 3): neither peptide affected cell viability
